Experimental data: a melting point compilation (Tetko et al.; mined from patent text by program, amines drawn as free bases though some values may be those of a salt)

Molecule `CCOC(=O)C(NC(=O)CNC(N)=O)C(=O)OCC` has a melting point of 140 to 142 °C.
For `CCOC(=O)CNc1c(C)cc(C(O)(C(F)(F)Cl)C(F)(F)Cl)cc1C`, the melting point was 102 to 104 °C.
`CN1C(=O)COc2cc3c(cc21)OCC31C(=O)Nc2ccccc21` (stereo not drawn) gave a melting point of over 250 °C.
With `CCCc1c(OCCCSc2ccc(C(=O)CCC(=O)O)cc2F)ccc(C(C)=O)c1O` the melting point was 115 to 116 °C.
Work on `CCCCc1oc2ccccc2c1C(=O)Nc1ccc2c(Br)c(OCC(=O)OC)ccc2c1` yielded a melting point of 179 to 181 °C.
`COC(=O)CCc1nc(CCc2ccc(C(=O)OC)cc2)ccc1OCCCC/C=C/c1ccc(OC)cc1` gave a melting point of 59 to 61 °C.
Work on `COc1ccccc1P(CC(CCCCCCO)CP(c1ccccc1OC)c1ccccc1OC)c1ccccc1OC` yielded a melting point of 47 to 50 °C.
Molecule `Cc1c(C(=O)Nc2cc(Cl)c(N3CCC(N4CCOCC4)CC3)c(Cl)c2)cnn1-c1ccc(Cl)cc1` has a melting point of 246 to 248 °C.
With `CC(=O)Cc1ccc(Oc2ccc(C(F)(F)F)cc2)cc1` the melting point was 88 to 90 °C.
`COC(=O)CCc1sc(NC(=O)C[C@H]2O[C@H](c3cccc(OC)c3OC)c3cc(Cl)ccc3N(CC(C)(C)COC(C)=O)C2=O)nc1-c1ccccc1` showed a melting point of 168 °C.
Molecule `CC(=O)c1ccc2c(=O)c(Br)c(C)oc2c1` has a melting point of 124 °C.
`CCOC(=O)c1cc(SC)c(I)cc1N` gave a melting point of 59 to 60 °C.
For `CC1c2cc(O)ccc2-c2ccc(O)cc21`, the melting point was 192 to 196 °C.
Molecule `CCS(=O)c1ccc(-c2coc3ccc(-c4nnc(C)o4)nc23)cc1` (stereo not drawn) has a melting point of 207 to 208 °C.
In the case of `Nc1noc2cc3c(cc12)C1(CO3)C(=O)N(Cc2ccccc2C(F)(F)F)c2ccccc21` (stereo not drawn), the melting point is reported as 262 to 264 °C.
`O=C(C=C1CCN(Cc2ccc(F)cc2)CC1)NCc1ccc(F)c(F)c1` showed a melting point of 83 to 85 °C.
In the case of `Cc1nc(-c2ccc(CN3C(=O)C4(COc5cc6c(cc54)CCO6)c4ccccc43)cc2)no1` (stereo not drawn), the melting point is reported as 185 to 186 °C.
With `CN1C(=O)CSC=C1c1ccccc1` the melting point was 95 to 97 °C.
Work on `CNC(=C[N+](=O)[O-])NCc1cccnc1` yielded a melting point of 159 to 160 °C.
For `CCCCCCCCCCCc1cc2ccc(C(=O)OCCCC)cc2[nH]1`, the melting point was 73 to 76 °C.
Work on `Cn1nnc(-c2ccc(C=Cc3ccc(-c4nc5ccccc5o4)cc3)cc2)c1C#N` yielded a melting point of 264 to 266 °C.
With `Cc1cc(O)ccc1-c1cnc2[nH]c(=O)n(CC3CCCCC3)c2n1` the melting point was 212 to 214 °C.
Work on `Cc1c(C)c(N)c2c(c1C)C(c1ccc(C(C)C)cc1)CO2` (stereo not drawn) yielded a melting point of 122 to 123 °C.
Molecule `CN(C)C(=O)c1ccc(S(=O)(=O)c2ccc(NC(=O)[C@@](C)(O)C(F)(F)F)c(Cl)c2)cc1` has a melting point of 120 °C.
With `CCc1noc(-c2cc3c(cn2)[nH]c2cccc(Oc4ccc(Cl)cn4)c23)n1` the melting point was 259 to 260 °C.
Work on `CC(Nc1ccc([N+](=O)[O-])cc1)c1ccccc1` (stereo not drawn) yielded a melting point of 95 to 96 °C.
Work on `COC(=O)CCC(=O)c1ccc(Cl)c(S(N)(=O)=O)c1` yielded a melting point of 113 to 115 °C.
Work on `COC1=NS(=O)(=O)N(C)C(Cl)=N1` yielded a melting point of 77 to 83 °C.
For `CC(c1ccc(O)cc1)(c1ccc(O)cc1)c1ccc(C(C)(c2ccc(O)cc2)c2ccc(O)cc2)cc1`, the melting point was 307 °C.
For `CCOc1c(Br)ccc(C(=O)OC)c1N(C)S(C)(=O)=O`, the melting point was 82 to 88 °C.
Molecule `CCOc1c(C)c(N2CCN(c3ccc(OC)cc3)CC2)c(C)c2c1OC(C)(C)C2` has a melting point of 151 to 153 °C.
For `Cc1c(N(C)C)n2c(cc1=O)CCCC2`, the melting point was over 240 °C.
For `CCCOc1ccccc1-c1ccc2c(c1)C=C(C(=O)Nc1ccc(CN(C)C3CCOCC3)cc1)CCS2(=O)=O`, the melting point was 190 to 192 °C.
With `COc1ccc(OC)c(S(=O)(=O)n2c(COC(C)(C)C(=O)O)cc3cc(Cl)ccc32)c1` the melting point was 156 to 158 °C.
For `CC(C)(C)OC(=O)Nc1ccc(-c2noc(COc3ccc(F)c(C(N)=O)c3F)n2)cc1`, the melting point was 165 to 166 °C.
In the case of `CN(C)C=CC(=O)C1CC1`, the melting point is reported as 55 °C.
Molecule `O=C(O)c1ccc(CC(NC(=O)C(c2ccccc2)c2ccccc2)c2ccccc2)cc1` (stereo not drawn) has a melting point of 245 to 248 °C.
Molecule `CC(C)c1cccc(C(C)C)c1NC(=O)NCC1(O)CCCc2ccccc21` (stereo not drawn) has a melting point of 170 to 171 °C.
